The record followed here is patent US9119857B2, “Small molecule activators of HsIV protease for development of novel antimicrobials” (priority 2013, dated 2015).

In the test the target is T1, E. coli HslV peptidase (Escherichia coli, UniProt P0A7B8).
T1 construct: His tag (inferred from Ni-chelating purification and the pET20B+ vector); made in house; host or cells: E. coli BL21 (DE3), pET20B+ vector
The experiment in a line: biochemical. As to conditions: recombinant E. coli HslV; substrate Z-Gly-Gly-Leu-AMC; in the absence of HslU; ED50 = concentration giving half maximal reaction velocity, from Vi/Vo plots; read-out: E. coli HslV activation (ED50 in μM). Here is the method: ED50 values were calculated from the plots of Vi/Vo versus compound concentration in which Vi and Vo were the velocities in the presence and absence of the compound^20.
The HslV activation assays were carried out with recombinant E. coli HslV and HslU. Recombinant HslV and HslU were expressed in E. coli BL21 (DE3) cells containing pET20B+ vector. Purification of both proteins was carried out using Ni-chelating and ion-exchange chromatography as reported elsewhere^4.
Plots of HslV peptidase activity as a function of compound concentrations were constructed (FIG. 4).

T1 sequence (P0A7B8 2-176): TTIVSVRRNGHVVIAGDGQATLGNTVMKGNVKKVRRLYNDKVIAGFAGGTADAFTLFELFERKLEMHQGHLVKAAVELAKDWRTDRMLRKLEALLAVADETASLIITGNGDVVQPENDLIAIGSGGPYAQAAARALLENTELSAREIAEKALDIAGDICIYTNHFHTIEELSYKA

As for `O=c1c2ccccc2nc(-c2ccc([N+](=O)[O-])cc2)n1/N=C/c1c(O)ccc2ccccc12` [Compound 1, 3-[(E)-[(2-hydroxynaphthalen-1-yl)methylidene]amino]-2-(4-nitrophenyl)-3,4-dihydroquinazolin-4-one], the EC50 was 0.9 ± 0.25 µM.

For `O=C(N/N=C/c1cc(=O)c2ccccc2o1)c1ccccc1` [Compound 2, N″-[(1E)-(4-oxo-4H-chromen-2-yl)methylidene]benzohydrazide], the EC50 stood at 1.3 ± 0.4 µM.
